Common to all, as to format: functional
The subject of assay [1] is Mycobacterium tuberculosis. Briefly: Selectivity ratio of MIC for compound resistant Mycobacterium tuberculosis 16-4B harboring InhA GCC to GAC (A211D) phenotype to MIC for wild-type Mycobacterium tuberculosis H37Rv.
Assay [2] relates to Mycobacterium tuberculosis. Briefly: Selectivity ratio of MIC for compound resistant Mycobacterium tuberculosis 16-1B harboring InhA TCG to TTG (S186L) phenotype to MIC for wild-type Mycobacterium tuberculosis H37Rv.
Assay [3] deals with Mycobacterium tuberculosis. Briefly: Selectivity ratio of MIC for compound resistant Mycobacterium tuberculosis 16-6B harboring InhA ATC to AGC (150S) phenotype to MIC for wild-type Mycobacterium tuberculosis H37Rv.
In assay [4] the test system is Mycobacterium tuberculosis. Briefly: Antimycobacterial activity against compound resistant Mycobacterium tuberculosis 16-1B harboring InhA TCG to TTG (S186L).
Assay [5] relates to Mycobacterium tuberculosis. Briefly: Antimycobacterial activity against compound resistant Mycobacterium tuberculosis 8-8B harboring InhA CTG to GTG (L197V) phenotype.
For assay [6], the system named is Mycobacterium tuberculosis. Briefly: Antimycobacterial activity against compound resistant Mycobacterium tuberculosis 16-4B harboring InhA GCC to GAC (A211D) phenotype.
Assay [7] concerns Mycobacterium tuberculosis. Briefly: Antimycobacterial activity against compound resistant Mycobacterium tuberculosis 16-6B harboring InhA ATC to AGC (150S).
In assay [8] the test system is Mycobacterium tuberculosis. Briefly: Selectivity ratio of MIC for compound resistant Mycobacterium tuberculosis 8-8B harboring InhA CTG to GTG (L197V) phenotype to MIC for wild-type Mycobacterium tuberculosis H37Rv.

Converted amounts (≈) assume the structure as drawn. A value given as a limit tells only on which side of the number the result lay.

By MIC is commonly meant the least concentration at which growth counts as inhibited. The low end stands for inhibition by little substance, the high end for a need for much substance. With `Cc1cccc(-c2c(O)c3scc(Br)c3[nH]c2=O)c1`, the Selectivity ratio entry in assay [1], in assay [2], in assay [3] and in assay [8] was “<=16” throughout. Moreover, the MIC in assay [4] was 16 µg/mL (≈ 47.6 µM); in assay [5] it was 32 µg/mL (≈ 95.2 µM); in assay [6] it was greater than 128 µg/mL; in assay [7], 16 µg/mL (≈ 47.6 µM).

Take `CO[C@H]1/C=C/O[C@@]2(C)Oc3c(C)c(O)c4c(O)c(c(/C=N/N5CCN(C)CC5)c(O)c4c3C2=O)NC(=O)/C(C)=C\C=C\[C@H](C)[C@H](O)[C@@H](C)[C@@H](O)[C@@H](C)[C@H](OC(C)=O)[C@@H]1C` [RIFAMPIN]: the MIC in assay [4] was 0.063 µg/mL (≈ 0.0766 µM); in assay [5], 0.063 µg/mL (≈ 0.0766 µM); in assay [6], 64 µg/mL (≈ 77.8 µM); in assay [7], 0.063 µg/mL (≈ 0.0766 µM).

For the compound `NNC(=O)c1ccncc1` [ISONIAZID], the MIC in assay [4], in assay [5], in assay [6] and in assay [7] was 0.063 µg/mL (≈ 0.459 µM) each time.

These data come from ChEMBL document CHEMBL6127057, “Design and synthesis of Thieno[3, 2-b]pyridinone derivatives exhibiting potent activities against Mycobacterium tuberculosis in vivo by targeting Enoyl-ACP reductase” (Eur J Med Chem, 2024).
